Source: US20060035889A1, “Treatment for methamphetamine addiction and reduction of methamphetamine use using serotonin antagonists” (priority 2004, published 2006)

Experiments:
[1] = molecular target: α1; conditions: read-out: receptor affinity (Ki) α1; cited from earlier work
[2] = tested on: METH-sensitized rats; experiment: Reversal of METH-induced behavioral sensitization by 5-HT2A/2C antagonists (motor activity after acute METH challenge); format: in vivo, rat
Excerpt: Automation of observational evaluations was accomplished using computerized small animal monitors (AccuScan Instr. Inc., Columbus, Ohio). […] One feature of drug-induced behavioral sensitization is heterogeneity of motor responses and the AccuScan monitors quantify numerous behavioral indices. This is a critical point for the motor profile is exquisitely related to METH dose, the drug history of the rat and observation time. After 3- or 31-days of withdrawal from repeated METH injections, rats were allowed to achieve baseline motor activity with a 30 min habituation period, challenged with 1 mg/kg sc METH and monitored for 90 min.
Multiple 5-HT2A/2C antagonists with differing pharmacological profiles were tested for their ability to ameliorate METH-induced behavioral sensitization when administered after sensitization has developed. […] The doses were selected based on the antagonists' ability to block 5-HT2A- and 5-HT2C-mediated activity and their pharmacokinetic profiles.

[3] = molecular target: T1, 5-HT2C (Homo sapiens, UniProt P28335); conditions: read-out: receptor affinity (Ki) 5-HT2C; cited from earlier work
T1 sequence (P28335 33-458): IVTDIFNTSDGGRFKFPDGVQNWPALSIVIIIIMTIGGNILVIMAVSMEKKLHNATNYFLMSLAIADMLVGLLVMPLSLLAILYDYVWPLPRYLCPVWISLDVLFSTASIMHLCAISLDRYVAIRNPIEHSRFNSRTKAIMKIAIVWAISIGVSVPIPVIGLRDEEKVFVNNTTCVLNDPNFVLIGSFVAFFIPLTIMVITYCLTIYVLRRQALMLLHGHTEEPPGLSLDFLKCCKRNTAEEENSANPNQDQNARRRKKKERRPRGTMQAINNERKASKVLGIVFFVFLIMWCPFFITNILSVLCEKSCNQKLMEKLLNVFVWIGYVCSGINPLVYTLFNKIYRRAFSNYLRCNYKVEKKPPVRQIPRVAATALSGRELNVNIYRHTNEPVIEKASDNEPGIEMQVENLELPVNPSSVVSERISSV

[4] = molecular target: α2; conditions: read-out: receptor affinity (Ki) α2; cited from earlier work
[5] = tested on: ventral pallidal neurons; experiment: Electrophysiology of ventral pallidal neurons, i.v. METH dose-response in chloral hydrate-anesthetized rats; format: in vivo, rat
Experimental: Based on the biochemical results and because the ventral pallidum contains one of the highest concentrations of 5-HT in the brain, electrophysiological evaluations of this region in rats behaviorally sensitized to METH were conducted (with a 5-day once daily treatment of 2.5 mg/kg). The acute challenge was intravenously administered METH (via a tail vein cannula) as previously used by T. C. Napier's lab ^e.g., [34] where the drug is given in a cumulative dosing fashion such that each dose, administered in 2 min-intervals, essentially doubles the previous dose. METH was tested using a range of 0.06-4.0 mg/kg in saline vehicle. […] Moreover, this approach establishes if systemic administration of METH, in doses that include those producing behavioral sensitization, are sufficient promote sensitized cellular responding and thus allows for direct comparisons of cellular responding to behavioral outcomes. After a 3-day withdrawal, the ability of intravenously administered METH or 1-(2,5-dimethoxy-4-iodophenyl)-2-aminopropane (DOI) to increase ventral pallidal cell firing was enhanced in chloral hydrate-anesthetized rats, as shown by a leftward shift in the dose-response curve with a […] and an increase in response efficacy for both agonists (FIG. 16) and this occurred without any changes in the portion of neurons showing a rate increase or decrease to the acute METH challenge.
Electrophysiological assessment of the ventral pallidum was also conducted 30 days after repeated METH. […] For each experiment, an i.v. METH dose-response curve (METH was tested using a range of 0.06-2.0 mg/kg in saline vehicle) was generated for one ventral pallidal neuron per rat at 30 days withdrawal from repeated METH. Based on the analysis of curves where there was an excitatory effect of i.v. METH on ventral pallidal neurons (171 animals), there was a diminished excitatory effect of i.v. METH in the ventral pallidum of rats that were pretreated with METH only. This is illustrated by both the curves and corresponding Emax data in FIG. 17. This decrease only at long-term withdrawal mirrors the reduction seen in pallidal pCREB only after 14, but not at 3 day withdrawal from repeated METH (see Example III).

CN1CCN2c3ncccc3Cc3ccccc3[C@@H]2C1 (racemic) [mirtazapine, 1,2,3,4,10,14b-hexahydro-2-methyl-pyrazino[2,1-a]pyrido[2,3-c]benzazepine]
Ki [1]: 500 nM | vertical movement suppression seen in METH-pretreated rats ([2]; mirtazapine 5 mg/kg x 15 days): attenuation of the vertical movement suppression | decreases in total distance traveled and time spent ambulating induced by METH pretreatments ([2]; mirtazapine 5 mg/kg x 15 days, data not shown): attenuated the decreases | horizontal activity ([2]; mirtazapine 5 mg/kg x 15 days, first 60 min after acute METH challenge): slight attenuation | potentiation of METH-induced sensitization for any assessed behavior ([2]; mirtazapine daily 5 mg/kg x 15 days): did not potentiate | overall attenuation of METH-sensitized responses ([2]; mirtazapine daily 5 mg/kg x 15 days, M-F): greatest overall attenuation | mirtazapine+saline group vs saline+saline pretreated rats ([2]; mirtazapine daily 5 mg/kg x 15 days, saline-pretreated): did not differ | Ki [3]: 12 nM | Ki [4]: 65 nM | Emax of Firing Rate Increases of Acute Meth ([5]; METH days 1-5, then antagonist, tested 31 days after last METH): 251% ± 21% (n = 5) | Emax of Firing Rate Increases of Acute Meth ([5]; Sal days 1-5, then antagonist, tested 31 days after last injection): 240% ± 44% (n = 5) | effect of repeated METH on response of ventral pallidal neurons to acute METH challenge ([5]; after 30 days withdrawal): reversal
